Measurements published in ChEMBL document CHEMBL5518235, “Identification of Novel Series of Potent and Selective Relaxin Family Peptide Receptor 1 (RXFP1) Agonists” (J Med Chem, 2024).
Active and inactive are the calls of the source. The calls are words filed in the database; no cut-off is given here.

Legend:
[1] = target: T1, Relaxin receptor 1 (Homo sapiens, UniProt Q9HBX9); assay: (§1) Agonist activity at human RXFP1 expressed in T-Rex-CHO-K1 cells assessed as stimulation of cAMP production incubated for 45 mins by HTRF assay; format: functional, cell-based
T1 sequence (Q9HBX9 whole entry): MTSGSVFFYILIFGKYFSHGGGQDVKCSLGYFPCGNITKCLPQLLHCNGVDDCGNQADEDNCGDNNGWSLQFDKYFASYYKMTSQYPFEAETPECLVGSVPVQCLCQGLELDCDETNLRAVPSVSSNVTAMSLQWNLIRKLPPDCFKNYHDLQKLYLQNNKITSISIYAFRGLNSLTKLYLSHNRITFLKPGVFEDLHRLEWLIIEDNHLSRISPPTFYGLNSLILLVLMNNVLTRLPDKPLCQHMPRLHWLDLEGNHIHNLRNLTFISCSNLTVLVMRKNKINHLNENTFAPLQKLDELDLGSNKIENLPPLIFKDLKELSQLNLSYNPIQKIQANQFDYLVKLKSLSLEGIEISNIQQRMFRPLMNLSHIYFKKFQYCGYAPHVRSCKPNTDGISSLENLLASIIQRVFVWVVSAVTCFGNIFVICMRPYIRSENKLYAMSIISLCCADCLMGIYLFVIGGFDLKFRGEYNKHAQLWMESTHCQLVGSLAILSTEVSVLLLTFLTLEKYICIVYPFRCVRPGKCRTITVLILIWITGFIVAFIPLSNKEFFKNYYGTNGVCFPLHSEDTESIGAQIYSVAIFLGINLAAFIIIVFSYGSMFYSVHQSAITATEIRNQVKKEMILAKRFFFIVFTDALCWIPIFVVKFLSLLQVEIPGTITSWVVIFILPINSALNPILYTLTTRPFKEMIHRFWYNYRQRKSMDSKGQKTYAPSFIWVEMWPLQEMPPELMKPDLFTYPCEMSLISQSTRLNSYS

[2] = Metabolic stability in cryopreserved human hepatocytes assessed as unbound intrinsic clearance measured per 10^6 cells at 1 uM measured after 120 mins by LC-MS/MS analysis; format: ADME, cell-based, Hepatocyte; conditions: 2 h
[3] = target: T2, Relaxin receptor 1 (Homo sapiens) (UniProt Q9HBX9); assay: Agonist activity at human RXFP1 expressed in T-Rex-CHO-K1 cells assessed as stimulation of cAMP production by measuring maximal efficacy at 50 uM incubated for 45 mins by HTRF assay relative to control; format: functional, cell-based; conditions: filed as agonist
T2 sequence (whole entry): T1 sequence (Q9HBX9 whole entry)

[4] = Metabolic stability in human liver microsomes assessed as unbound intrinsic clearance at 1 uM incubated for 30 mins in presence of NADPH by LC-MS/MS analysis; format: ADME, Microsome; conditions: 0.5 h
[5] = Lipophilicity, logD of the compound in 1-octanol and phosphate buffer at pH 7.4 incubated for 3 hrs by shake flask method based LC/MS/MS analysis; format: physicochemical; conditions: for logD at 3 h: 1-octanol/phosphate buffer, pH 7.4
[6] = Metabolic stability in cryopreserved human hepatocytes assessed as intrinsic clearance measured per 10^6 cells at 1 uM after 120 mins by LC-MS/MS analysis; format: ADME, cell-based, Hepatocyte; conditions: cryopreserved hepatocytes, read-out: CLH
[7] = Metabolic stability in human liver microsomes assessed as intrinsic clearance at 1 uM incubated for 30 mins in presence of NADPH by LC-MS/MS analysis; format: ADME, Microsome; conditions: for microsomal CLint at 1 µM: liver microsomes, read-out: CLH
[8] = target: T3, Relaxin receptor 1 (Rattus norvegicus) (UniProt Q6R6I6); assay: Agonist activity at rat RXFP1 expressed in T-Rex-CHO-K1 cells assessed as stimulation of cAMP production at 40 uM incubated for 45 mins by HTRF assay; format: functional, cell-based
T3 sequence (whole entry): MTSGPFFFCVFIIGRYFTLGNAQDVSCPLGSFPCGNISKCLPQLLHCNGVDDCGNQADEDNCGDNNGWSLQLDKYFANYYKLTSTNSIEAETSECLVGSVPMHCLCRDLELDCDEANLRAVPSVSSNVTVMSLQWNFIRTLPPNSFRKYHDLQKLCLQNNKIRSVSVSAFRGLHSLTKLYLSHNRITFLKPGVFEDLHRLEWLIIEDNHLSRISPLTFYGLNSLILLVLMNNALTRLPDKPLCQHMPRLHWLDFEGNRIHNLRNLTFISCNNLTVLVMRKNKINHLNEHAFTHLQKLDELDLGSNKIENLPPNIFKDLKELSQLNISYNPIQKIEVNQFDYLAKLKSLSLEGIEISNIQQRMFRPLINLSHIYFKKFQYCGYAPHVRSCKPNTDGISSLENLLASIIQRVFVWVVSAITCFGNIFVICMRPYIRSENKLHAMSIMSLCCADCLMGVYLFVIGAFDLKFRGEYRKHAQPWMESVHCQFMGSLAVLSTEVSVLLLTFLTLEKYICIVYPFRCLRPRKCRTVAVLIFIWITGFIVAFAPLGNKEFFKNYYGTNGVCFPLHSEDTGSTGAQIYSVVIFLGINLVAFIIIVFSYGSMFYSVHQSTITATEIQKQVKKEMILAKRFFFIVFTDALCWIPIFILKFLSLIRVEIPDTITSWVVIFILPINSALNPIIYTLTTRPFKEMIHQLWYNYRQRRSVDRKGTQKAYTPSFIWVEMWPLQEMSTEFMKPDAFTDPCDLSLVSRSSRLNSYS

[9] = target: T2, Relaxin receptor 1 (Homo sapiens); assay: Displacement of [125I]relaxin H2 from human RXFP1 expressed in CHO cells incubated for 90 mins by radioligand binding assay; format: cell-based
[10] = target: T2, Relaxin receptor 1 (Homo sapiens); assay: Agonist activity at human RXFP1 expressed in T-Rex-CHO-K1 cells assessed as stimulation of cAMP production at 50 uM incubated for 45 mins by HTRF assay relative to control; format: functional, cell-based; conditions: filed as agonist
[11] = target: T2, Relaxin receptor 1 (Homo sapiens); assay: as §1; format: functional, cell-based
[12] = Clearance in Han Wistar rat at 0.76 micromol/kg, iv by LC-MS/MS analysis; format: ADME, organism-based; conditions: in vivo, dose 0.76 µmol/kg
[13] = Volume of distribution at steady state in Han Wistar rat at 0.76 micromol/kg, iv by LC-MS/MS analysis; format: ADME, organism-based; conditions: in vivo, dose 0.76 µmol/kg, read-out: Vdss
[14] = Half-life in Han Wistar rat at 0.76 micromol/kg, iv by LC-MS/MS analysis; format: ADME, organism-based; conditions: in vivo, dose 0.76 µmol/kg
[15] = Protein binding in rat plasma assessed as free fraction at 5 uM incubated for 18 hrs by equilibrium dialysis based LC-MS/MS analysis; format: ADME, cell-free
[16] = Metabolic stability in Han Wistar rat hepatocytes assessed as unbound intrinsic clearance measured per 10^6 cells at 1 uM after 120 mins by LC-MS/MS analysis; format: ADME, cell-based, Hepatocyte; conditions: 2 h
[17] = Metabolic stability in Han Wistar rat hepatocytes assessed as intrinsic clearance measured per 10^6 cells at 1 uM after 120 mins by LC-MS/MS analysis; format: ADME, cell-based, Hepatocyte; conditions: read-out: CLH

EC50 [1] [nM]	CL free [2]	Emax [3] [%]	CL free [4]	logD at 3 h [5]	hepatocyte CLint at 1 µM [6] [µL/min/1e6 cells]	microsomal CLint at 1 µM [7] [µL/min/mg]	SMILES	further results
2510	1.8 10^3uL/min	108	> 29 10^3uL/min/mg	4.4	8.9	44	COc1ccccc1C(=O)N[C@H]1[C@@H](C(=O)Nc2cccc(S(=O)(=O)C(F)(F)F)c2)[C@@H]2C=C[C@H]1C2	–
–	–	92	–	–	–	–	COc1cc(F)c(-c2ccc(C(=O)O)cc2)cc1C(=O)N[C@H]1[C@@H](C(=O)Nc2cccc(S(=O)(=O)C(F)(F)F)c2)[C@@H]2C=C[C@H]1C2 (racemic) [listing 1 of 2 here]	Activity [8]: inactive
3160	0.96 10^3uL/min	153	3.7 10^3uL/min/mg	> 4	6.7	12	COc1ccccc1C(=O)Nc1ccccc1C(=O)Nc1cccc(S(=O)(=O)C(F)(F)F)c1	–
251	7.8 10^3uL/min	109	92000 µL/min/mg	> 3.7	18	74	COc1cc(F)c(-c2ccc(S(N)(=O)=O)cc2)cc1C(=O)N[C@@H]1[C@H]2CC[C@H](C2)[C@@H]1C(=O)Nc1cccc(S(=O)(=O)C(F)(F)F)c1	–
15.8	175 µL/min	124	–	3.55	7.7	–	COc1cc(F)c(O[C@H]2CC[C@@H](C(=O)O)CC2)cc1C(=O)N[C@H]1[C@@H](C(=O)Nc2ccc(F)c(C(F)(F)F)c2)[C@@H]2C=C[C@H]1C2	Activity [9]: inactive
> 50100	–	–	–	–	–	–	O=C(O)c1ccc(-c2cc(C(=O)N[C@H]3[C@@H](C(=O)Nc4cccc(S(=O)(=O)C(F)(F)F)c4)[C@@H]4C=C[C@H]3C4)ccc2F)cc1 (racemic)	Activity [10]: 57%
–	–	–	6.3 10^3uL/min/mg	4.4	–	242	COc1ccccc1C(=O)N[C@@H]1CCCC[C@@H]1C(=O)Nc1cccc(S(=O)(=O)C(F)(F)F)c1 (racemic)	Activity [11]: inactive
158	1.3 10^3uL/min	103	314 µL/min/mg	3.6	32	16	COc1cc(F)c(-c2ccc(C(=O)O)cc2)cc1C(=O)N[C@@H]1[C@H]2CC[C@H](C2)[C@@H]1C(=O)Nc1cccc(S(=O)(=O)C(F)(F)F)c1	–
200	3.9 10^3uL/min	115	< 333 µL/min/mg	> 3.9	11	< 3	COc1cc(F)c(-c2ccc(C(=O)O)cc2)cc1C(=O)Nc1ccccc1C(=O)Nc1cccc(S(=O)(=O)C(F)(F)F)c1	–
200	–	–	121 µL/min/mg	3.4	–	6.3	COc1cc(F)c(-c2ccc(C(=O)O)cc2)cc1C(=O)N[C@H]1[C@@H](C(=O)Nc2cccc(S(=O)(=O)C(F)(F)F)c2)[C@@H]2C=C[C@H]1C2 (racemic) [listing 2 of 2 here]	clearance [12]: 73 mL/min/kg; Vd [13]: 0.92 L/kg; half-life [14]: 22.2 min; fraction unbound at 18 h, 5 µM [15]: 0.0031; CL free [16]: 457 µL/min; hepatocyte CLint at 1 µM [17]: 16 µL/min/1e6 cells
–	–	–	0.98 10^3uL/min/mg	3.5	–	173	COc1ccccc1C(=O)N[C@H]1CN(C)C[C@H]1C(=O)Nc1cccc(S(=O)(=O)C(F)(F)F)c1 (racemic)	Activity [11]: inactive
–	484 µL/min	–	150 µL/min/mg	3.8	9.2	9.9	COc1cc(F)c(-c2ccc(C(=O)O)cc2)cc1C(=O)N[C@@H]1[C@H](C(=O)Nc2cccc(S(=O)(=O)C(F)(F)F)c2)[C@H]2C=C[C@@H]1C2	Activity [11]: inactive
79.4	295 µL/min	110	111 µL/min/mg	3.2	6.5	4.6	COc1cc(F)c(-c2ccc(CC(=O)O)cc2)cc1C(=O)N[C@H]1[C@@H](C(=O)Nc2cccc(S(=O)(=O)C(F)(F)F)c2)[C@@H]2C=C[C@H]1C2 (racemic)	–
158	334 µL/min	–	100 µL/min/mg	–	11.7	–	COc1cc(F)c(-c2ccc(C(=O)O)cc2)cc1C(=O)N[C@H]1[C@@H](C(=O)Nc2cccc(S(=O)(=O)C(F)(F)F)c2)[C@@H]2C=C[C@H]1C2	logD ([5]; octanol/water, pH 7.4, 3 h, 3 h): 3.8; CLH ([7]; microsomes, 0.5 h, 1 µM): 7.2 µL/min/mg
158	277 µL/min	103	< 64 µL/min/mg	3.7	5.4	< 3	COc1cc(F)c(-c2cccc(C(=O)O)c2)cc1C(=O)N[C@H]1[C@@H](C(=O)Nc2cccc(S(=O)(=O)C(F)(F)F)c2)[C@@H]2C=C[C@H]1C2	–
3160	–	100	12 10^3uL/min/mg	4.9	–	300	COc1ccccc1C(=O)N[C@@H]1[C@H](C(=O)Nc2cccc(S(=O)(=O)C(F)(F)F)c2)[C@H]2C=C[C@@H]1C2 (racemic)	–
